According to publication PMC10673995, “Discovery of a novel cardiac-specific myosin modulator using artificial intelligence-based virtual screening” (Nature Communications, 2023):
“And” between values parts separate entries of the source, which are not always exact repeats. Identical values can stand only once.

What was measured:
[1] = target: bovine cardiac myofibrils (Bos taurus, UniProt Q9BE39); assay: mant-ATP chase single nucleotide turnover, cardiac myofibrils;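 note: bovine cardiac myofibrils at 1 mg/mL in PIPES buffer, 20 µM mant-ATP aged 1 min then chased with 20 mM ATP, fluorescence (ex 360, em 450 nm) read every second for 15 min at 25 °C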
Chain of bovine cardiac myofibrils (Q9BE39 whole entry): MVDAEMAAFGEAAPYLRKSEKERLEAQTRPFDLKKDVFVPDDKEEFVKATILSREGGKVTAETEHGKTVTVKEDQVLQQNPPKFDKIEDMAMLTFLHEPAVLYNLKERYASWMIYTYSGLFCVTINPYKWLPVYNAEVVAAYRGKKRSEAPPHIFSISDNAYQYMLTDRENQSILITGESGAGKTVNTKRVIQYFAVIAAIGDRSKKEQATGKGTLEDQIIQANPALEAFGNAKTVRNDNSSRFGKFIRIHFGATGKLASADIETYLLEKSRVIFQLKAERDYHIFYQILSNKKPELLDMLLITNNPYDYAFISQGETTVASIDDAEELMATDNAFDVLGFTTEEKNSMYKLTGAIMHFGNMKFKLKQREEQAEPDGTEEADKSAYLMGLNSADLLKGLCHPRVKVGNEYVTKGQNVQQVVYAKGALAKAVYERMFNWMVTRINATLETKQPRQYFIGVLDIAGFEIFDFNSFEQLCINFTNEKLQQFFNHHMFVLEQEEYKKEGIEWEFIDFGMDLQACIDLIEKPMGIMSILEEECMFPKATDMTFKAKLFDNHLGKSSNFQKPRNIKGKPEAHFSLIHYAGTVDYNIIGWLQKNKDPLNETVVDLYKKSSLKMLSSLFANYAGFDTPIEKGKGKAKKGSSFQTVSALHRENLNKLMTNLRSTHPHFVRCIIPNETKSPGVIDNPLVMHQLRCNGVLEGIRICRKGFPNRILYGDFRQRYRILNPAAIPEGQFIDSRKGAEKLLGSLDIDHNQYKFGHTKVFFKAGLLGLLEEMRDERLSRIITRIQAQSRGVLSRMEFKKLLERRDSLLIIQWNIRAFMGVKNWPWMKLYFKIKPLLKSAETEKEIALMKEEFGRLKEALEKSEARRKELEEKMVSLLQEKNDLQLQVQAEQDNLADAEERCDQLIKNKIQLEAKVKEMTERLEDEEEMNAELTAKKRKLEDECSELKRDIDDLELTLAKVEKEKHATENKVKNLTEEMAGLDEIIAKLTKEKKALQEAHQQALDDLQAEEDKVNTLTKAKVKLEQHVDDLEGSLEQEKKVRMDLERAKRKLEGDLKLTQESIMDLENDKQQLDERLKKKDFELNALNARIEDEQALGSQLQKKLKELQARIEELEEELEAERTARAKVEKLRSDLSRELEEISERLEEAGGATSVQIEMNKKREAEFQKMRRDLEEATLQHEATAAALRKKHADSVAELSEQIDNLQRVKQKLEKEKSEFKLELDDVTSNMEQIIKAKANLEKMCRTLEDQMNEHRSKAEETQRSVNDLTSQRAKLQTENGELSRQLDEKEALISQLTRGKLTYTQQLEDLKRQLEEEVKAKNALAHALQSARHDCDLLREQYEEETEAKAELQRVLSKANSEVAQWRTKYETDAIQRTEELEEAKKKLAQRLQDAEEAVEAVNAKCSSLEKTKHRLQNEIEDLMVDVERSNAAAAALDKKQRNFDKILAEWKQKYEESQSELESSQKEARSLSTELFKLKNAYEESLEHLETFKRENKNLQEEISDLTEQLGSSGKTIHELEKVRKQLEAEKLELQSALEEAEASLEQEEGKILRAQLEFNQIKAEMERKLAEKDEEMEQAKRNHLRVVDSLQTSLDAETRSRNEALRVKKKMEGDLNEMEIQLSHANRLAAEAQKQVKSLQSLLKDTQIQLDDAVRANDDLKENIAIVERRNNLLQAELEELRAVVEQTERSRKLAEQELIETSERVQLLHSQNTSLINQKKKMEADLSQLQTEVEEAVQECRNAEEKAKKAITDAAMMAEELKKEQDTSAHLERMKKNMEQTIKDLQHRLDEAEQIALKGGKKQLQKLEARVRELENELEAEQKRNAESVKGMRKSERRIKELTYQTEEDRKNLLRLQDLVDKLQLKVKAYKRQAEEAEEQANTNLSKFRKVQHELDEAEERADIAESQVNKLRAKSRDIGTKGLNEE
Chain of bovine cardiac myofibrils (P85100 whole entry partner): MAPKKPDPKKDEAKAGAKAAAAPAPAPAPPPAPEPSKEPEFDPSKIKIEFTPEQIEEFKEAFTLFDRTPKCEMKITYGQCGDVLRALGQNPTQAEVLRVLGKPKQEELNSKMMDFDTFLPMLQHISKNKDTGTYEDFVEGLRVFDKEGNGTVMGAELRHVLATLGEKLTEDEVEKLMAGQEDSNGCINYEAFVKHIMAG
Chain of bovine cardiac myofibrils (Q3SZE5 whole entry partner): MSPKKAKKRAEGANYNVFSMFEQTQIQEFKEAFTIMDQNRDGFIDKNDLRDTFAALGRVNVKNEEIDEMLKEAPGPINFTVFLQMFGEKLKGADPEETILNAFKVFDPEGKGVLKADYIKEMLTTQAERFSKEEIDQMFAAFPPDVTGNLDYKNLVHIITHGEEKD

[2] = target: T1, synthetic thick filaments formed from purified full-length bovine β-cardiac myosin (Bos taurus, UniProt Q9BE39); assay: mant-ATP chase single nucleotide turnover, synthetic thick filaments; format: biochemical; conditions: for Representative Traces (mant-ATP chase, fluorescence signal over time): Figure 3b
T1 construct: diluting full-length bovine cardiac myosin stock into assay buffer; from tissue; host or cells: bovine cardiac muscle (the text says isolated/purified and describes no preparation)
T1 sequence (Q9BE39 whole entry): as the sequence (Q9BE39 whole entry) above
T1 sequence (P85100 whole entry partner): as the sequence (P85100 whole entry partner) above
T1 sequence (Q3SZE5 whole entry partner): as the sequence (Q3SZE5 whole entry partner) above
Excerpt: We used systems of increasing complexity ranging from the isolated cardiac myosin motor domains (Fig. 3a) to synthetic thick filaments formed from purified full-length bovine cardiac myosin (Fig. 3b) and bovine cardiac myofibrils as substrates in the chase assays (Fig. 3c). In contrast to the isolated myosin motors, synthetic thick filaments contain two myosin head domains per molecule connected via their coiled-coil tail.
Synthetic thick filaments were freshly prepared by diluting full-length bovine cardiac myosin stock into assay buffer (composition in mmol L^−1: 15 PIPES pH 7, 5 MgCl2, 1 DTT) and incubation on ice for 2 h. Bovine myosin S1 and synthetic thick filament concentrations were adjusted to 0.4 μmol L^−1 with assay buffer and 40 μL aliquoted into individual wells of a black 384-well plate (Greiner). Mant-ATP (JenaBioscience) was added to each well to a final concentration of 0.4 μmol L^−1 using an automated injector unit in a ClarioStar Plate Reader (BMG LabTech) and the system was allowed to age for 1 min. The chase phase was started by adding a final concentration of 2 mmol L^−1 ATP using a second automated injector unit. Fluorescence intensity from each well was constantly measured for 15 min every 1 sec at 25 °C with the following settings: excitation at 360 nm with a 20 nm bandwidth and emission at 450 nm with a 20 nm bandwidth. For experiments with cardiac myofibrils the concentration was adjusted to 1 mg m L^−1, and the mant-ATP and ATP concentrations were increased to 20 μmol L^−1 and 20 mmol L^−1, respectively.

[3] = Cardiac myofibrils, individual replicates
[4] = Synthetic Myosin Filaments, individual replicates

## CCc1cc2c(=O)n(NC(=S)NC(C)C)cnc2s1 [F10]
[1]
  effect on the rate of the fast phase: no effect
[1]; 2 μmol L^−1 Mavacamten or 20 μmol L^−1 F10, control 0.0719 ± 0.0193
  kfast: 0.0552 ± 0.0106 s⁻¹
[1]; [3]
  kfast: 0.02031 s⁻¹ and 0.02851 s⁻¹ and 0.03852 s⁻¹ and 0.09761 s⁻¹ and 0.08409 s⁻¹ and 0.06218 s⁻¹
  kslow: 0.003333 s⁻¹ and 0.002949 s⁻¹ and 0.001064 s⁻¹ and 0.001853 s⁻¹ and 0.00204 s⁻¹ and 0.001557 s⁻¹
  slow phase: 72.63% and 66.55% and 67.45% and 65.69% and 56.45% and 78.18%
[1]; Figure 3c, individual replicates
  Bar graph: 72.63 and 66.55 and 67.45 and 65.69 and 56.45 and 78.18
[1]; t [s] = 6
  Representative Traces: 0.8687
[1]; t [s] = 7
  Representative Traces: 0.7649
[1]; t [s] = 8
  Representative Traces: 0.847
[1]; t [s] = 9
  Representative Traces: 0.7441
[1]; t [s] = 10
  Representative Traces: 0.7291
[1]; t [s] = 11
  Representative Traces: 0.7606
[1]; t [s] = 12
  Representative Traces: 0.6903
[1]; t [s] = 13
  Representative Traces: 0.6968
[1]; t [s] = 14
  Representative Traces: 0.7384
[1]; t [s] = 96
  Representative Traces: 0.4594
[1]; t [s] = 97
  Representative Traces: 0.4902
[1]; t [s] = 98
  Representative Traces: 0.4564
[1]; t [s] = 99
  Representative Traces: 0.5227
[1]; t [s] = 100
  Representative Traces: 0.5227
[1]; t [s] = 101
  Representative Traces: 0.4329
[1]; t [s] = 102
  Representative Traces: 0.4816
[1]; t [s] = 103
  Representative Traces: 0.4496
[1]; t [s] = 104
  Representative Traces: 0.4983
[1]; t [s] = 105
  Representative Traces: 0.4303
[1]; t [s] = 106
  Representative Traces: 0.4469
[1]; t [s] = 107
  Representative Traces: 0.4441
[1]; t [s] = 108
  Representative Traces: 0.454
[1]; t [s] = 109
  Representative Traces: 0.4003
[1]; t [s] = 110
  Representative Traces: 0.4314
[1]; t [s] = 111
  Representative Traces: 0.4793
[1]; t [s] = 112
  Representative Traces: 0.4152
[1]; t [s] = 113
  Representative Traces: 0.4525
[1]; t [s] = 114
  Representative Traces: 0.4165
[1]; t [s] = 115
  Representative Traces: 0.4344
[1]; t [s] = 116
  Representative Traces: 0.416
[1]; t [s] = 117
  Representative Traces: 0.4849
[1]; t [s] = 118
  Representative Traces: 0.4794
[1]; t [s] = 119
  Representative Traces: 0.4668
[1]; t [s] = 120
  Representative Traces: 0.4665
[1]; t [s] = 121
  Representative Traces: 0.4689
[1]; t [s] = 122
  Representative Traces: 0.4838
[1]; t [s] = 123
  Representative Traces: 0.4652
[1]; t [s] = 124
  Representative Traces: 0.4182
[1]; t [s] = 125
  Representative Traces: 0.3966
[1]; t [s] = 126
  Representative Traces: 0.4538
[1]; t [s] = 127
  Representative Traces: 0.4517
[1]; t [s] = 128
  Representative Traces: 0.4361
[1]; t [s] = 129
  Representative Traces: 0.4908
[1]; t [s] = 130
  Representative Traces: 0.4396
[1]; t [s] = 131
  Representative Traces: 0.3944
[1]; t [s] = 132
  Representative Traces: 0.397
[1]; t [s] = 133
  Representative Traces: 0.4059
[1]; t [s] = 134
  Representative Traces: 0.4164
[1]; t [s] = 135
  Representative Traces: 0.475
[1]; t [s] = 136
  Representative Traces: 0.486
[1]; t [s] = 137
  Representative Traces: 0.4478
[1]; t [s] = 138
  Representative Traces: 0.507
[1]; t [s] = 139
  Representative Traces: 0.3865
[1]; t [s] = 140
  Representative Traces: 0.4564
[1]; t [s] = 141
  Representative Traces: 0.4199
[1]; t [s] = 142
  Representative Traces: 0.4501
[1]; t [s] = 143
  Representative Traces: 0.4218
[1]; t [s] = 144
  Representative Traces: 0.4033
[1]; t [s] = 145
  Representative Traces: 0.441
[1]; t [s] = 146
  Representative Traces: 0.3827
[1]; t [s] = 147
  Representative Traces: 0.3962
[1]; t [s] = 148
  Representative Traces: 0.4486
[1]; t [s] = 149
  Representative Traces: 0.4251
[1]; t [s] = 150
  Representative Traces: 0.3547
[1]; t [s] = 151
  Representative Traces: 0.4491
[1]; t [s] = 152
  Representative Traces: 0.3776
[1]; t [s] = 153
  Representative Traces: 0.3808
[1]; t [s] = 154
  Representative Traces: 0.3286
[1]; t [s] = 155
  Representative Traces: 0.4639
[1]; t [s] = 156
  Representative Traces: 0.435
[1]; t [s] = 157
  Representative Traces: 0.3725
[1]; t [s] = 158
  Representative Traces: 0.3522
[1]; t [s] = 159
  Representative Traces: 0.4127
[1]; t [s] = 160
  Representative Traces: 0.3983
[1]; t [s] = 161
  Representative Traces: 0.3945
[1]; t [s] = 162
  Representative Traces: 0.3807
[1]; t [s] = 163
  Representative Traces: 0.4372
[1]; t [s] = 164
  Representative Traces: 0.4557
[1]; t [s] = 165
  Representative Traces: 0.4341
[1]; t [s] = 166
  Representative Traces: 0.3757
[1]; t [s] = 167
  Representative Traces: 0.3677
[1]; t [s] = 168
  Representative Traces: 0.4335
[1]; t [s] = 169
  Representative Traces: 0.3827
[1]; t [s] = 170
  Representative Traces: 0.3934
[1]; t [s] = 171
  Representative Traces: 0.3476
[1]; t [s] = 172
  Representative Traces: 0.3794
[1]; t [s] = 173
  Representative Traces: 0.3525
[1]; t [s] = 174
  Representative Traces: 0.3963
[1]; t [s] = 175
  Representative Traces: 0.3642
[1]; t [s] = 176
  Representative Traces: 0.3906
[1]; t [s] = 177
  Representative Traces: 0.3677
[1]; t [s] = 178
  Representative Traces: 0.392
[1]; t [s] = 179
  Representative Traces: 0.4104
[1]; t [s] = 180
  Representative Traces: 0.4065
[1]; t [s] = 181
  Representative Traces: 0.4021
[1]; t [s] = 182
  Representative Traces: 0.3788
[1]; t [s] = 183
  Representative Traces: 0.3953
[1]; t [s] = 184
  Representative Traces: 0.397
[1]; t [s] = 185
  Representative Traces: 0.4128
[1]; t [s] = 186
  Representative Traces: 0.3872
[2]
  effect on the rate of the fast DRX phase: no effect
[2]; Figure 3b source data, individual replicate values
  Bar graph (Figure 3b, mant-ATP chase): 60.72 and 53.1 and 55.77 and 61 and 84.67 and 56.52 and 70.86
[2]; t = 796 s
  Representative Traces (mant-ATP chase, fluorescence signal over time): 0.1829
[2]; t = 797 s
  Representative Traces (mant-ATP chase, fluorescence signal over time): 0.2272
[2]; [4]
  kfast: 0.05914 s⁻¹ and 0.02268 s⁻¹ and 0.03788 s⁻¹ and 0.03196 s⁻¹ and 0.0963 s⁻¹ and 0.1619 s⁻¹
  kslow: 0.004733 s⁻¹ and 0.003729 s⁻¹ and 0.003941 s⁻¹ and 0.001622 s⁻¹ and 0.001835 s⁻¹ and 0.001574 s⁻¹
  slow phase: 53.1% and 55.77% and 61% and 84.67% and 56.52% and 70.86%
[2]; control 0.0046 ± 0.0007
  kslow: 0.0027 ± 0.0005 s⁻¹
[2]; control 22.9 ± 2.8
  Slow Phase [%] (SRX amplitude): 63.2 ± 4.2% and ~63%
[2]; control […]
  kfast: 0.0784 ± 0.0208 s⁻¹
